# According to US10227331B2 (priority 2015, dated 2019):
# Like-named read-outs stand apart in the source and are kept apart here.
# Key:
# [1] = target: IMP-1 (Serratia marcescens, UniProt P52699); test: biochemical; format: biochemical
# How it was run: (§1)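 Test compound, enzyme and the FRET cephalosporin substrate CCF2-FA are incubated together for 2 hours at 25° C. Cleavage is followed by fluorescence, and IC50 values are derived from semi-logarithmic inhibition curves fitted with a 4-parameter model.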
# [2] = target: NDM-1 (Klebsiella pneumoniae, UniProt C7C422); test: biochemical; format: biochemical; settings: CCF2-FA substrate, 2 hours at 25° C; read-out: NDM-1 IC50
# Sequence of NDM-1 (C7C422 whole entry, looked up, species assumed): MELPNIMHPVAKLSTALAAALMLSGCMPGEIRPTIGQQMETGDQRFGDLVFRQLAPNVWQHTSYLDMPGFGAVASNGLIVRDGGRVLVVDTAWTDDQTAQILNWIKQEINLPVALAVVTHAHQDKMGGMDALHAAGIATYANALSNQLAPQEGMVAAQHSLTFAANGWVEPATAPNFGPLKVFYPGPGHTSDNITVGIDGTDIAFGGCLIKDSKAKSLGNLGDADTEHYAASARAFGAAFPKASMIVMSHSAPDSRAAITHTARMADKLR
# How it was run: as §1
# [3] = target: VIM-1 (Pseudomonas aeruginosa (strain ATCC 15692 / DSM 22644 / CIP 104116 / JCM 14847 / LMG 12228 / 1C / PRS 101 / PAO1), UniProt A0A0F7KYQ8); test: biochemical; settings: CCF2-FA substrate, 2 hours at 25° C
# How it was run: as §1
# [4] = test system: Escherichia coli expressing NDM-1 (CLB30005, CLB30016); format: cell-based; settings: with imipenem 1 μg/ml, 95% inhibition of bacterial growth; for Escherichia coli MITC95: NDM-1 (CLB30016)
# How it was run: (§2)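 Clinical strains grown overnight on blood agar, then diluted 1:100 in 1.1× CAMHB and exposed to test compound with imipenem at 1 μg/ml. Incubation was 22–24 h at 35° C; growth was read by absorbance to find the compound concentration restoring imipenem susceptibility.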
# [5] = test system: Klebsiella pneumoniae expressing VIM-1 (IHMA599644); format: cell-based; settings: with imipenem 1 μg/ml, 95% inhibition of bacterial growth; for Klebsiella pneumoniae MITC95: VIM-1 (IHMA599644)
# How it was run: as §2
# [6] = test system: Serratia marcescens expressing IMP-1 (CL5741); format: cell-based; settings: with imipenem 1 μg/ml, 95% inhibition of bacterial growth; for Serratia marcescens MITC95: IMP-1 (CL5741)
# How it was run: as §2
# [7] = test system: P. aeruginosa expressing IMP-1, efflux+ (MB9798); format: cell-based, Pseudomonas aeruginosa; settings: for P. aeruginosa expressing IMP-1, efflux+ (MB9798) MITC95: imipenem at 2 μg/mL, in the presence of a class A, C, D serine β-lactamase inhibitor closely related to relebactam; for Efflux ratio: ratio MITC95 PA_9798/MITC95 PA_9799
# Description: (§3) The strain background is Pseudomonas aeruginosa PAO1.
# [8] = test system: P. aeruginosa expressing IMP-1, efflux− (MB9799); test: Efflux: concentration of MBL inhibitor which restores susceptibility to imipenem; format: cell-based, Pseudomonas aeruginosa; settings: imipenem at 2 μg/mL, in the presence of a class A, C, D serine β-lactamase inhibitor closely related to relebactam
# Description: as §3
# [9] = CCF2-FA substrate, 2 hours at 25° C, read-out: IMP-1 IC50
# Sequence of IMP-1 (P52699 whole entry, looked up, species assumed): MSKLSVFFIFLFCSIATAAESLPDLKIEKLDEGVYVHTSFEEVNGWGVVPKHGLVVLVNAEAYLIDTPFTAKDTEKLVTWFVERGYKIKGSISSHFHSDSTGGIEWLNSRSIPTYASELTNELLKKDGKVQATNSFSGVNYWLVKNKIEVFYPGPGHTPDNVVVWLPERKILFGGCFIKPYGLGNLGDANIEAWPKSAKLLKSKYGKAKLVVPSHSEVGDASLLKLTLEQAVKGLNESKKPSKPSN
SMILES,"IC50 [1, 9] [pM]",IC50 [2] [pM],IC50 [3] [pM],Escherichia coli expressing NDM-1 (CLB30016) MITC95 [4] [µM],Klebsiella pneumoniae expressing VIM-1 (IHMA599644) MITC95 [5] [µM],Serratia marcescens expressing IMP-1 (CL5741) MITC95 [6] [µM],"P. aeruginosa expressing IMP-1, efflux+ (MB9798) MITC95 [7] [µM]",Efflux ratio [7],"P. aeruginosa expressing IMP-1, efflux− (MB9799) MITC95 [8] [µM]",Escherichia coli MITC95 [4] [µM],Klebsiella pneumoniae MITC95 [5] [µM],Serratia marcescens MITC95 [6] [µM],IC50 [1] [pM]
"N#Cc1ccc(-c2ccc(S(=O)(=O)CCN)c(S(N)(=O)=O)c2-c2nnn[nH]2)cn1.O=C(O)C(F)(F)F [Example 144, 2-((4-(6-cyanopyridin-3-yl)-2-sulfamoyl-3-(1H-tetrazol-5-yl)phenyl)sulfonyl)ethanaminium 2,2,2-trifluoroacetate]",5590,7200,3040,0.7813,3.125,3.125,50,31.99,1.563,–,–,–,–
"N[C@@H](CO)CS(=O)(=O)c1ccc(-c2cccc3[nH]cnc23)c(-c2nn[nH]n2)c1S(N)(=O)=O [Example 357, (S)-6-((2-amino-3-hydroxypropyl)sulfonyl)-3-(1H-benzo[d]imidazol-4-yl)-2-(2H-tetrazol-5-yl) benzenesulfonamide]",294,163,249,–,–,–,0.7813,0.50,1.563,1.563,3.125,1.563,–
"NS(=O)(=O)c1c(S(=O)(=O)C2CNC2)ccc(-c2cccc3ccnn23)c1-c1nnn[nH]1.O=C(O)C(F)(F)F [Example 102, 3-((4-(pyrazolo[1,5-a]pyridin-7-yl)-2-sulfamoyl-3-(1H-tetrazol-5-yl)phenyl)sulfonyl)azetidin-1-ium 2,2,2-trifluoroacetate]",910,407,457,3.125,3.125,3.125,3.125,2.00,1.563,–,–,–,–
"Nc1nc2cc(-c3ccc(S(=O)(=O)C4CNC4)c(S(N)(=O)=O)c3-c3nn[nH]n3)ccc2[nH]1 [Example 40, 3-(2-amino-1H-benzo[d]imidazol-5-yl)-6-(azetidin-3-ylsulfonyl)-2-(2H-tetrazol-5-yl)benzenesulfonamide]",1990,409,348,0.4453,1.375,0.5573,3.125,5.61,0.5573,–,–,–,–
"Nc1nc2cccc(-c3ccc(S(=O)(=O)C4CNC4)c(S(N)(=O)=O)c3-c3nn[nH]n3)c2o1 [Example 28, 3-(2-aminobenzo[d]oxazol-7-yl)-6-(azetidin-3-ylsulfonyl)-2-(2H-tetrazol-5-yl)benzenesulfonamide]",–,48.9,173,1.563,3.125,3.125,6.25,4.00,1.563,–,–,–,1330
"Nc1nc2ccc(-c3ccc(S(=O)(=O)C4CNC4)c(S(N)(=O)=O)c3-c3nn[nH]n3)cn2n1 [Example 215, 3-(2-amino-[1,2,4]triazolo[1,5-a]pyridin-6-yl)-6-(azetidin-3-ylsulfonyl)-2-(2H-tetrazol-5-yl)benzenesulfonamide]",2190,239,298,3.125,6.25,3.125,6.25,2.00,3.125,–,–,–,–
"NS(=O)(=O)c1c(S(=O)(=O)C2CNC2)ccc(-c2cccnc2N2CCOCC2)c1-c1nn[nH]n1 [Example 220, 6-(azetidin-3-ylsulfonyl)-3-(2-morpholinopyridin-3-yl)-2-(2H-tetrazol-5-yl) benzenesulfonamide]",14900,901,337,6.25,12.5,12.5,100,32.00,3.125,–,–,–,–
"C[C@H](N)CS(=O)(=O)c1ccc(-c2cccc3[nH]c(N)nc23)c(-c2nn[nH]n2)c1S(N)(=O)=O [Example 92, 3-(2-amino-1H-benzo[d]imidazol-4-yl)-6-((S)-2-aminopropylsulfonyl)-2-(2H-tetrazol-5-yl)benzenesulfonamide]",612,141,223,0.2969,0.8542,0.6406,0.4777,0.81,0.5893,–,–,–,–
"Nc1nc2c(-c3ccc(S(=O)(=O)C[C@@H](N)CO)c(S(N)(=O)=O)c3-c3nn[nH]n3)cccc2[nH]1 [Example 274, 3-(2-amino-1H-benzo[d]imidazol-4-yl)-6-((S)-2-amino-3-hydroxypropylsulfonyl)-2-(2H-tetrazol-5-yl)benzenesulfonamide]",431,113,206,–,–,–,0.7813,1.00,0.7813,0.7813,1.563,1.563,–
"Cc1ccc(-c2ccc(S(=O)(=O)[C@@H]3CCNC3)c(S(N)(=O)=O)c2-c2nn[nH]n2)c2nc(N)sc12 [Example 187, 3-(2-amino-7-methylbenzo[d]thiazol-4-yl)-6-((R)-pyrrolidin-3-ylsulfonyl)-2-(2H-tetrazol-5-yl)benzenesulfonamide]",75.7,69.1,158,0.7813,1.563,0.7813,1.563,2.00,0.7813,–,–,–,–
"NCCS(=O)(=O)c1ccc(-c2cccc3[nH]c([C@H](N)CO)nc23)c(-c2nn[nH]n2)c1S(N)(=O)=O [Example 329, (S)-3-(2-(1-amino-2-hydroxyethyl)-1H-benzo[d]imidazol-4-yl)-6-((2-aminoethyl)sulfonyl)-2-(2H-tetrazol-5-yl) benzenesulfonamide]",1930,404,282,–,–,–,3.125,2.00,1.563,1.563,6.25,3.125,–
"COC(=O)c1cccc(-c2ccc(S(=O)(=O)CCN)c(S(N)(=O)=O)c2-c2nn[nH]n2)c1N [Example 197, methyl 2-amino-4′-((2-aminoethyl)sulfonyl)-3′-sulfamoyl-2′-(2H-tetrazol-5-yl)-[1,1′-biphenyl]-3-carboxylate]",554,556,262,0.7813,3.125,1.563,12.5,8.00,1.563,–,–,–,–
"CS(=O)(=O)c1ccc(-c2ccc(NS(=O)(=O)C3CC3)cc2)c(-c2nn[nH]n2)c1S(N)(=O)=O [Example 241, 4′-(Cyclopropanesulfonamido)-4-(methylsulfonyl)-2-(2H-tetrazol-5-yl)-[1,1′-biphenyl]-3-sulfonamide]",44.4,658,86.8,6.25,12.5,3.125,12.5,8.00,1.563,–,–,–,–
